The source of these data is article PMC6114103, “17-DMAG inhibits the multiplication of several Babesia species and Theileria equi on in vitro cultures, and Babesia microti in mice” (International Journal for Parasitology: Drugs and Drug …, 2018).

For series [1] the following is noted: introduction, background statement; ref Jilani et al., 2013; cited from earlier work.
Another series deals with NIH/3T3 cells. Nature of the series: cytotoxicity (drug-exposure viability) assay, CCK-8. It is filed as cell-based, mouse. The procedure:
(§1) Each medium was supplemented with 10% fetal bovine serum, 0.5% penicillin/streptomycin (Gibco, Life Technologies, USA), and an additional 1% glutamine. The medium was changed every 3–4 days and incubated until approximately 80% confluent. The cells were free from mycoplasma contamination after being checked by staining with DAPI (Sigma-Aldrich, USA). The detachment of cells from the culture flask was done using TrypLE™ Express (Gibco, Life Technologies, USA) after washing two times with Dulbecco's phosphate-buffered saline (DPBS). Subsequently, the counting of viable cells was carried out using a Neubauer improved C-Chip (NanoEntek Inc., Korea) after staining with 0.4% trypan blue solution. The drug-exposure viability assay was performed in accordance with the recommendation of the Cell Counting Kit-8 (CCK-8, Dojindo, Japan). Briefly, the assay was carried out using a 96-well plate at 37 °C in a humidified incubator with 5% CO2. One hundred microliters of cells at a density of 5 × 10^4 cells/ml was seeded per well and allowed to attach to the plate for 24 h. […] The exposure of drugs was carried out for 24 h, followed by the addition of 10 μl of CCK-8. The plate was further incubated for 3 h, and the absorbance was measured at 450 nm using a microplate reader.

Another series relates to MDBK cells. The series is described as above. It is filed as cell-based, bovine. The procedure: as §1
The next series concerns B. bovis (Texas strain). Briefly: in vitro multiplication inhibition assay (SYBR Green I fluorescence, 96 h), single drugs and two-drug combinations. Type of series: cell-based, Babesia bovis. The following applies: B. bovis, 96 h, triplicate, mean ± SD; read-out: IC50 on in vitro culture of parasites. The procedure: (§2) Babesia parasite cultures were maintained using a microaerophilic stationary-phase culture system ([Levy and Ristic, 1980]; [Avarzed et al., 1997]; [Igarashi et al., 1998]). Briefly, bovine Babesia parasites were grown in bovine red blood cells (RBC) in the specific complete medium for each species. The medium for B. bovis (Texas strain) contained GIT medium supplemented with 10% bovine serum, while the medium for B. bigemina (Argentina strain) and B. divergens (Germany strain) was Medium 199 and RPMI 1640 medium, respectively, supplemented with 40% bovine serum ([Rizk et al., 2016]). B. caballi (USDA strain) was grown using equine RBC in GIT medium supplemented with 10% equine serum. T. equi (USDA strain) was grown in equine RBC in M199 medium supplemented with 40% equine serum and hypoxanthine (MP Biomedicals, USA) at a final concentration of 13.6 μg/ml. All of the media included 60 U/ml penicillin G, 60 μg/ml streptomycin, and 0.15 μg/ml amphotericin B (Sigma-Aldrich, USA). The cultures were incubated at 37 °C in a humidified chamber with an atmosphere of 5% CO2, 5% O2, and 90% N2.
(§3) The assays were conducted in accordance with the protocol described previously with modification ([Guswanto et al., 2014]). Briefly, the cultures of B. bovis, B. bigemina, B. divergens, B. caballi, and T. equi with a parasitemia of 8%, 3%, 10%, 4%, and 9%, respectively, were harvested and adjusted to 1% parasitemia with fresh RBC before the inhibition assay. The 60 inner wells of a 96-well plate were used in the assay, while the peripheral wells were filled with sterile distillate water to reduce evaporation during incubation. To each well in triplicate, 2.5 μl of infected RBC (5 μl for B. divergens, B. caballi, and T. equi) was added and mixed with a culture medium containing the drug to a total volume of 100 μl. The stock solution of 17-DMAG, DA, and AV was dissolved in a culture medium at various concentrations using two-fold dilution. A culture medium containing DMSO at a final concentration of 0.2% was added to the well with infected RBC as a positive control and to the well with uninfected RBC as a negative control. Furthermore, a drug combination assay was conducted in parallel with the single drug assay at the constant ratio in accordance with the Chou–Talalay method ([Chou, 2006]). In the same plate with a single drug inhibition assay, a two-drug combination (DA+17-DMAG, DA + AV, and 17-DMAG + AV) at concentrations of 0.25 x IC50, 0.5 x IC50, IC50, 2 x IC50, and 4 x IC50 was added to the well containing infected RBC in triplicate. The plate was incubated in a humidified incubator with 5% CO2, 5% O2, and 90% N2. After 96 h, 100 μl of a lysis buffer containing SYBR Green I was added to each well. The plate was wrapped with aluminum foil to avoid direct light exposure and incubated at room temperature. After incubation for 6 h, fluorescence values were measured using a fluorescence spectrophotometer (Fluoroskan Ascent, Thermo Fisher Scientific, USA) with the excitation and emission wavelength at 485 nm and 518 nm, respectively. The fluorescence data were subtracted from the negative control and used to calculate the IC50.
(§4) The IC50 of 17-DMAG, DA, and AV was calculated from the percentage of inhibition on the in vitro multiplication of all tested species using non-linear regression (curve fit), available in GraphPad Prism (GraphPad Software Inc., USA). Combination index (CI) values for the drug combination were calculated using CompuSyn software ([Chou, 2006]). Since the chemotherapy effect is preferable at the highest inhibition, the degree of synergism was determined as the weighted average of CI values using a formula ((1 x IC50) + (2 x IC75) + (3 x IC90) + (4 x IC95))/10 ([Chou, 2006]). The differences among groups regarding the parasitemia, hematology profiles, and body weight in the B. microti–infected mouse model were analyzed using Student's t-test, available in GraphPad Prism software.

A further series deals with B. caballi (USDA strain). The description is as above. It is filed as cell-based, Babesia caballi. The conditions noted are these: B. caballi, 96 h, triplicate, mean ± SD; read-out: IC50 on in vitro culture of parasites. Here is the method:
as §2, §3, §4

The subject of series [2] is B. divergens (Germany strain). The series is described as above. It is filed as cell-based, Babesia divergens. The conditions noted are these: B. divergens, 96 h, triplicate, mean ± SD; read-out: IC50 on in vitro culture of parasites. Here is the method: as §2, §3, §4
Series [3] has as its system B. microti (Munich strain). Nature of the series: inhibition assay using a B. microti-infected mouse model. The conditions noted are these: 17-DMAG 30, DA 25, AV 20 mg/kg BW; 17-DMAG + DA 15 + 15, 17-DMAG + AV 15 + 10, DA + AV 15 + 10 mg/kg BW; 5 consecutive days. Type of series: in vivo, BALB/c mice. The procedure: B. microti (Munich strain) was recovered from -80 °C stock in two 6-week female Balb/c mice (Clea, Japan). The parasitemia was monitored every 2 days. […] The inhibitory effect of 17-DMAG was also determined using a B. microti mouse model according to the previous protocol ([Goo et al., 2010]). Briefly, 35 female BALB/c mice aged 8 weeks received an intraperitoneal injection of 1 × 10^7 of B. microti-infected RBC and were divided into seven groups. Another group consisting of five mice was kept uninfected and untreated as a control. The multiplication of B. microti was observed from blood smears after staining with Giemsa using a light microscope. The drug treatment was initiated to all infected mice on day five, after the parasitemia reached approximately 1%, and continue to the total of five consecutive days. Group 1 was treated with 4% DMSO in saline water as a control intraperitoneally. […] The parasitemia was estimated from Giemsa-stained blood smears using microscopy in approximately 5000 RBC. Furthermore, the hematology profiles including RBC, hemoglobin, and hematocrit were measured from 10 μl of mouse blood using an automatic hematology analyzer (Celltac α MEK-6450, Nihon Kohden, Tokyo, Japan). The rate of parasitemia, hematology profiles, and mouse body weight was monitored for 60 days. The experiment was repeated once so each group contained 10 mice. […] Combination index (CI) values for the drug combination were calculated using CompuSyn software ([Chou, 2006]). […] The differences among groups regarding the parasitemia, hematology profiles, and body weight in the B. microti-infected mouse model were analyzed using Student's t-test, available in GraphPad Prism software. The difference was considered significant if P < 0.05.

For series [4], the system named is B. bigemina (Argentina strain). Nature of the series: in vitro multiplication inhibition assay (SYBR Green I fluorescence, 96 h), single drugs and two-drug combinations. It is filed as cell-based, Babesia bigemina. The conditions noted are these: B. bigemina, 96 h, triplicate, mean ± SD; read-out: IC50 on in vitro culture of parasites. The procedure: as §2, §3, §4

Where [5] appears, read: at a concentration of 40 μM, separate assay.

SMILES strings stand for the structures.

Take `C=CCNC1=C2C[C@@H](C)C[C@H](OC)[C@H](O)[C@@H](C)/C=C(\C)[C@H](OC(N)=O)[C@@H](OC)/C=C\C=C(/C)C(=O)NC(=CC1=O)C2=O` [17-AAG, 17-N-allylamino-17-demethoxygeldanamycin]: the solubility result in series [1] is reported as “poor solubility”.

For the compound `CC(=O)NCC(=O)O.CC(=O)NCC(=O)O.N=C(N)c1ccc(N=NNc2ccc(C(=N)N)cc2)cc1` [DA, diminazene aceturate], the IC50 with NIH/3T3 cells (NIH/3T3, 24 h exposure, CCK-8, read-out: IC50 on cell line NIH/3T3) is greater than 40 µM; in the series with MDBK cells (MDBK, 24 h exposure, CCK-8, read-out: IC50 on cell line MDBK), greater than 40 µM; in the series with B. bovis (Texas strain), 190 ± 42.1 nM; in the series on B. caballi (USDA strain), 13.4 ± 3.6 nM; in series [2] it was 378 ± 39.3 nM; in series [4], 1850 ± 104 nM. The “inhibition on NIH/3T3 cell viability” value in the series with NIH/3T3 cells (setting [5]) is reported as “did not show any inhibition”. In the series on MDBK cells (setting [5]), the “inhibition on MDBK cell viability” value is “did not show any inhibition”. For the same compound, the “day p.i. on which parasite no longer detected in blood smears via microscopy (parasite clearance)” value in series [3] is no more than 28 day p.i.

As to `COC1=C2C[C@@H](C)C[C@H](OC)[C@H](O)[C@@H](C)/C=C(\C)[C@H](OC(N)=O)[C@@H](OC)/C=C\C=C(/C)C(=O)NC(=CC1=O)C2=O` [geldanamycin], the solubility entry in series [1] was “poor solubility”.
